In article PMC3345971 (Bioorganic & medicinal chemistry, 2012):

Legend:
SERT = details: cited from earlier work
DAT = details: cited from earlier work; for IC50: read-out: DAT IC50, oxatropenes substituted at the C3 position
[1] = molecular target: human dopamine transporter (hDAT) (Macaca fascicularis, UniProt Q9GJT6); experiment: Inhibition of [3H]WIN35,428 binding to the dopamine transporter; details: DAT over SERT
Chain of human dopamine transporter (hDAT) (Q9GJT6 whole entry): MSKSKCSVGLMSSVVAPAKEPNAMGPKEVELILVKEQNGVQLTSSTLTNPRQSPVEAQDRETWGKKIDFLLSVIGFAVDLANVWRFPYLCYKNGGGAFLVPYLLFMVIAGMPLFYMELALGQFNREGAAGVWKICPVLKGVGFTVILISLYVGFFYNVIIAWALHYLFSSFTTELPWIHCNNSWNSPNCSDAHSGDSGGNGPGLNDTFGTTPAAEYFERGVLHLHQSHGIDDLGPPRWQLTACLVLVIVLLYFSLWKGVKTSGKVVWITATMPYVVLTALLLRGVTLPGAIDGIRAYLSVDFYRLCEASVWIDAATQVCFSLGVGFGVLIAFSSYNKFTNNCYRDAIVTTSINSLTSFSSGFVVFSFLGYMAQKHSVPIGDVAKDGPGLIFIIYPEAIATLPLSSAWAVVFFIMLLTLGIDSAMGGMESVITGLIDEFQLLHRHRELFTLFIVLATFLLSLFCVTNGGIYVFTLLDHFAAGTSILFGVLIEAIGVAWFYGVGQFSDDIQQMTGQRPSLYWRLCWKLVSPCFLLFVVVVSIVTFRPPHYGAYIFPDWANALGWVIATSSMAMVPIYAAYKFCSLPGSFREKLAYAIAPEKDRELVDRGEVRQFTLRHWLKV

Compound: 2β-Carbomethoxy-3 β-[2-furylphenyl]-8-azabicyclo[3.2.1]tropane
- SERT binding (SERT; reported by Tamagnan et al): 0.15 nM
- DAT binding (DAT; reported by Tamagnan et al): 3.76 nM

Compound: 2β-carbomethoxy-3β-(2-naphthyl)-8-aza-bicyclo[3.2.1]octanes
- inhibition of SERT (SERT): 2.19 nM
- inhibition of DAT (DAT): 0.49 nM

Compound: COC(=O)C1=C(c2cccc3ccccc23)CC2CCC1O2 (centres unmarked) [oxatropene with 1-naphthyl]
- IC50 (DAT): 1720 nM

Compound: COC(=O)C1=C(c2ccc3cc4ccccc4cc3c2)CC2CCC1O2 (centres unmarked) [oxatropene with 2-anthracenyl]
- IC50 (DAT): > 40000 nM

Compound: COC(=O)C1=C(c2ccc3ccccc3c2)CC2CCC1O2 (centres unmarked) [oxatropene with 2-naphthyl]
- IC50 (DAT): 20 nM

Compound: (R,S)-3-[2-Benzothiophen-2-yl] -8-oxa-bicyclo[3.2.1]oct-2-ene-2carboxylic acid methyl ester [14m]
- selectivity for DAT vs. SERT [1]: 177 fold
